In US11793867B2, “Neoantigens and uses thereof” (BIONTECH US INC., priority 2017, dated 2023):

Assays:
CD8+ T cell responses = assay: In vivo immunogenicity assay, longmers and shortmers sequentially (FIG. 3 regimen); parameters: species or system C57BL/6 mice; conditions: CD8 T cells induced by Alg8 vaccination
Description: FIG. 3 illustrates exemplary administration regimen for peptides comprising neoepitopes. The top panel depicts administering a prime dose and boost of longmer. The middle panel depicts administering a prime dose and boost of shortmer. The lower panel depicts administering a prime dose of longmer and boost of shortmer. The boost dose is administered on day 7, 14, and day 21 after the prime dose.
Peptide-specific T cells are functionally enumerated using the ELISPOT assay (BD Biosciences), which measures the release of IFNγ from T cells on a single cell basis. Cells incubated with antigen overnight (16-18 hours) at 37° C. The next day, the cell suspension was discarded, and wells were washed once with PBS, and twice with deionized water. […] Substrate (3-amino-9-ethyl-carbazole, 0.1 M Acetate buffer, H2O2) was added to all wells, and spot development monitored (approximately 10 minutes). […] The plates were analyzed on an ELISPOT reader (Cellular Technology Ltd.) with accompanying software. […]
MHC tetramers were purchased or manufactured on-site, and were used to measure peptide-specific T cell expansion in the immunogenicity assays. […] The phenotype of cells was assessed using markers such as CD44, CD62L, KLRG1, CD127, PD-1, LAG-3 and TIM-3. […] Cells were acquired on a FACS Calibur (Becton Dickinson) instrument, and were analyzed by use of Cellquest software (Becton Dickinson). […]

[1] = in combination with a NYESO-1 peptide vaccine (in addition to Montanide); cited from earlier work
[2] = in humans; cited from earlier work

| Substance | TCR avidity (EC50) (CD8+ T cell responses) | patients showing induction of CD4+ and CD8+ T cell, as well as antibody responses to the peptide [1] | CD4+ and CD8+ responses [2] |
| --- | --- | --- | --- |
| AVGITYTWTRLYASVLTGSLVSKTKK [Alg8, longmer murine neoantigen peptide, H-2Kb, T3 model] | similar | – | – |
| poly-ICLC | – | > 90% | durable CD4+ and CD8+ responses |
| ITYTWTRL [Alg8-shortmer] | similar | – | – |
